IC50 data for 56 compounds are collected here from patent US20260158017A1, “KIF18A INHIBITOR” (WIGEN BIOMEDICINE TECHNOLOGY (SHANGHAI) CO., LTD., priority 2021, published 2026).

The target in the experiment is T1, Recombinant human KIF18A (1-467His-tagged) protein (Homo sapiens, UniProt Q8NI77).
T1 construct: Recombinant human KIF18A (1-467His-tagged) protein; His; made in house
T1 sequence (Q8NI77 1-467): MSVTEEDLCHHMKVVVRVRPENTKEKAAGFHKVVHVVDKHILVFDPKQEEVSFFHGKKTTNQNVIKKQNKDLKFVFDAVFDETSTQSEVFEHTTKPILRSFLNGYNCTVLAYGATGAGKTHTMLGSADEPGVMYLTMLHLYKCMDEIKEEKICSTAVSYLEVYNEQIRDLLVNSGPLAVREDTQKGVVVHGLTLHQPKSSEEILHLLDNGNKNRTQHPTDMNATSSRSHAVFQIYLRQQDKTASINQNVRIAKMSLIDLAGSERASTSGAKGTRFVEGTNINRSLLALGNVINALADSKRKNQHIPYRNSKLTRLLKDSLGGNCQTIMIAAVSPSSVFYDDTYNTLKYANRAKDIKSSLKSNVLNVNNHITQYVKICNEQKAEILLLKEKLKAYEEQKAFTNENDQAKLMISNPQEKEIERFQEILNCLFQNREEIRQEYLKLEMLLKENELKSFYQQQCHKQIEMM
T1 sequence (P02550 whole entry partner): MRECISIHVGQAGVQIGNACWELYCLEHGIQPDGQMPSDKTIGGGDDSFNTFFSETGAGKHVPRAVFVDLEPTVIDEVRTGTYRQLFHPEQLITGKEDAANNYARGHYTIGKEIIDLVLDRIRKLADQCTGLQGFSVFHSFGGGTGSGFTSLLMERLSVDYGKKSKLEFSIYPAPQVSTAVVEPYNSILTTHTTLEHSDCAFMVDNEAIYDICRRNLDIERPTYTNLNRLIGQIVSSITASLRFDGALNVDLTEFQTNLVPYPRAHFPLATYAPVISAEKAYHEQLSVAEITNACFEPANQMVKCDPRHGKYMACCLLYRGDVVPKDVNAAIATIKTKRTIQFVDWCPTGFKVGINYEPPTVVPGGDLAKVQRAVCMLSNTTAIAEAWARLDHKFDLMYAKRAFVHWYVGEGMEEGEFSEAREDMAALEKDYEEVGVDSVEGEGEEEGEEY
T1 sequence (P02554 whole entry partner): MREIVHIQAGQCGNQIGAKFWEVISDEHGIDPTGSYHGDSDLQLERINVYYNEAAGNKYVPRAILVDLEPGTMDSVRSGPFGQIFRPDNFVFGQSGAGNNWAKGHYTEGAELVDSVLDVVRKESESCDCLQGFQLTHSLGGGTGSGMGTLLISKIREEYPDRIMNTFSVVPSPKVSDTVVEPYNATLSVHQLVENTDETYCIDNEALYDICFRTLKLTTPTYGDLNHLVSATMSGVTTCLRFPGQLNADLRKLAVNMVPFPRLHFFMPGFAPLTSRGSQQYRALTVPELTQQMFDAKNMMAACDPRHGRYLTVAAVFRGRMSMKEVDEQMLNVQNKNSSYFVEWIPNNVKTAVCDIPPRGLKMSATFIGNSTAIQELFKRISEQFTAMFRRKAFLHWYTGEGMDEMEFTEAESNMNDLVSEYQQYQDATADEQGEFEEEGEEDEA
The experiment is described as follows: KIF18A enzyme assay (microtubule-stimulated ATPase activity, ADP-Glo). It is filed as biochemical. The following applies: 30 nM KIF18A, 75 μM ATP, 30 μg/mL pig microtubules; read-out: Inhibitory activity against KIF18A IC50. An outline of the steps: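 Buffer 15 mM Tris pH 7.5, 10 mM MgCl2, 0.01% Pluronic F-68, 1 μM paclitaxel, 30 μg/mL pig microtubules; reactions at room temperature. IC50 from inhibition relative to DMSO.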
With `O=C(Nc1cnc(S(=O)(=O)NCCO)cc1N1CCC2(CC1)CC2)c1ccc([N+](=O)[O-])c(N2CCC(F)CC2)c1` [Compound 217], the IC50 (as a rule, the point on the concentration scale where inhibition reaches its midpoint) lay within 100 to 500 nM. Regarding `O=C(Nc1cnc(S(=O)(=O)NCCO)cc1N1CCC2(CC1)CC2)c1ccc([N+](=O)[O-])c(N2CC3CC3C2)c1` (centres unmarked) [Compound 218], the concentration for half-maximal inhibition (IC50) was 100 to 500 nM.

In the case of `CC(C)(CO)Nc1cc(C(=O)Nc2cnc(S(=O)(=O)NCCO)cc2N2CCC3(CC2)CC3)ccc1[N+](=O)[O-]` [Compound 219], the IC50 lay in the range of 100 to 500 nM. Turning to `O=C(Nc1cnc(S(=O)(=O)NCCO)cc1N1CCC2(CC1)CC2)c1ccc([N+](=O)[O-])c(N2CCOCC2)c1` [Compound 220], the IC50 fell in the range of 100 to 500 nM.

On to `C[C@@H](CO)NS(=O)(=O)c1cc(N2CCC3(CC2)CC3)c(NC(=O)c2ccc([N+](=O)[O-])c(N3CCC(F)(F)CC3)c2)cn1` [Compound 221], for which the concentration for half-maximal inhibition (IC50) lay in the range of 100 to 500 nM. Regarding `C[C@H](CO)NS(=O)(=O)c1cc(N2CCC3(CC2)CC3)c(NC(=O)c2ccc([N+](=O)[O-])c(N3CCC(F)(F)CC3)c2)cn1` [Compound 222], the IC50 lay within 100 to 500 nM. For the compound `C[C@@H]1CN(c2cc(C(=O)Nc3cnc(S(=O)(=O)N[C@@H](C)CO)cc3N3CCC4(CC3)CC4)ccc2[N+](=O)[O-])CCO1` [Compound 223], the IC50 was in the range of 100 to 500 nM. The figure for `C[C@H](CO)NS(=O)(=O)c1cc(N2CCC3(CC2)CC3)c(NC(=O)c2ccc([N+](=O)[O-])c(N3CCO[C@H](C)C3)c2)cn1` [Compound 224] is 100 to 500 nM; for `O=C(Nc1cnc(NS(=O)(=O)CCO)cc1N1CCC2(CC1)CC2)c1ccc([N+](=O)[O-])c(N2CCC(F)(F)CC2)n1` [Compound 225] it is at most 100 nM; for `C[C@@H]1CN(c2nc(C(=O)Nc3cnc(NS(=O)(=O)CCO)cc3N3CCC4(CC3)CC4)ccc2[N+](=O)[O-])CCO1` [Compound 226] it is at most 100 nM. The figure for `C[C@H]1CN(c2nc(C(=O)Nc3cnc(NS(=O)(=O)CCO)cc3N3CCC4(CC3)CC4)ccc2[N+](=O)[O-])CCO1` [Compound 227] is at most 100 nM; for `O=C(Nc1cnc(NS(=O)(=O)CCO)cc1N1CCC2(CC1)CC2)c1ccc([N+](=O)[O-])c(N2CC(F)(F)C2)n1` [Compound 228] it is at most 100 nM. The figure for `O=C(Nc1cnc(NS(=O)(=O)CCO)cc1N1CCC2(CC1)CC2)c1ccc([N+](=O)[O-])c(OCCC(F)(F)F)n1` [Compound 229] is at most 100 nM; for `O=C(Nc1cnc(NS(=O)(=O)CCO)cc1N1CCC2(CC1)CC2)c1ccc([N+](=O)[O-])c(N2CCC3(CC3)C2)n1` [Compound 230] it is at most 100 nM; for `O=C(Nc1cnc(NS(=O)(=O)CCO)cc1N1CCC2(CC1)CC2)c1ccc([N+](=O)[O-])c(OC2CCC2)n1` [Compound 231] it is at most 100 nM. Take `CC1(F)CCN(c2nc(C(=O)Nc3cnc(NS(=O)(=O)CCO)cc3N3CCC4(CC3)CC4)ccc2[N+](=O)[O-])C1` (centres unmarked) [Compound 232]: the IC50 is at most 100 nM. The figure for `O=C(Nc1cnc(NS(=O)(=O)CCO)cc1N1CCC2(CC1)CC2)c1ccc([N+](=O)[O-])c(N2CCC(F)CC2)n1` [Compound 233] is at most 100 nM; for `O=C(Nc1cnc(NS(=O)(=O)CCO)cc1N1CCC2(CC1)CC2)c1ccc([N+](=O)[O-])c(N2CC3CC3C2)n1` (centres unmarked) [Compound 234] it is at most 100 nM. Then `CC(C)(CO)Nc1nc(C(=O)Nc2cnc(NS(=O)(=O)CCO)cc2N2CCC3(CC2)CC3)ccc1[N+](=O)[O-]` [Compound 235], with at most 100 nM; and `O=C(Nc1cnc(NS(=O)(=O)CCO)cc1N1CCC2(CC1)CC2)c1ccc([N+](=O)[O-])c(N2CCOCC2)n1` [Compound 236], with at most 100 nM; and `C[C@@H](CO)S(=O)(=O)Nc1cc(N2CCC3(CC2)CC3)c(NC(=O)c2ccc([N+](=O)[O-])c(N3CCC(F)(F)CC3)n2)cn1` [Compound 237], with at most 100 nM. As to `C[C@H](CO)S(=O)(=O)Nc1cc(N2CCC3(CC2)CC3)c(NC(=O)c2ccc([N+](=O)[O-])c(N3CCC(F)(F)CC3)n2)cn1` [Compound 238], the IC50 was at most 100 nM. The figure for `C[C@@H]1CN(c2nc(C(=O)Nc3cnc(NS(=O)(=O)[C@@H](C)CO)cc3N3CCC4(CC3)CC4)ccc2[N+](=O)[O-])CCO1` [Compound 239] is at most 100 nM; for `C[C@@H]1CN(c2nc(C(=O)Nc3cnc(NS(=O)(=O)[C@H](C)CO)cc3N3CCC4(CC3)CC4)ccc2[N+](=O)[O-])CCO1` [Compound 240] it is at most 100 nM. Turning to `O=C(Nc1cnc(S(=O)(=O)NCCO)cc1N1CCC2(CC1)CC2)c1ccc([N+](=O)[O-])c(N2CCC(F)(F)CC2)n1` [Compound 241], the concentration for half-maximal inhibition (IC50) was in the range of 100 to 500 nM. Regarding `C[C@@H]1CN(c2nc(C(=O)Nc3cnc(S(=O)(=O)NCCO)cc3N3CCC4(CC3)CC4)ccc2[N+](=O)[O-])CCO1` [Compound 242], the 50% inhibitory concentration (IC50) is 100 to 500 nM.

As for `C[C@H]1CN(c2nc(C(=O)Nc3cnc(S(=O)(=O)NCCO)cc3N3CCC4(CC3)CC4)ccc2[N+](=O)[O-])CCO1` [Compound 243], the IC50 is 100 to 500 nM. Then `O=C(Nc1cnc(S(=O)(=O)NCCO)cc1N1CCC2(CC1)CC2)c1ccc([N+](=O)[O-])c(N2CC(F)(F)C2)n1` [Compound 244], with 100 to 500 nM; and `O=C(Nc1cnc(S(=O)(=O)NCCO)cc1N1CCC2(CC1)CC2)c1ccc([N+](=O)[O-])c(OCCC(F)(F)F)n1` [Compound 245], with 100 to 500 nM. For `O=C(Nc1cnc(S(=O)(=O)NCCO)cc1N1CCC2(CC1)CC2)c1ccc([N+](=O)[O-])c(OC2CCC2)n1` [Compound 247], the IC50 is 100 to 500 nM. Regarding `CC1(F)CCN(c2nc(C(=O)Nc3cnc(S(=O)(=O)NCCO)cc3N3CCC4(CC3)CC4)ccc2[N+](=O)[O-])C1` (centres unmarked) [Compound 248], the IC50 is 100 to 500 nM. The figure for `O=C(Nc1cnc(S(=O)(=O)NCCO)cc1N1CCC2(CC1)CC2)c1ccc([N+](=O)[O-])c(N2CCC(F)CC2)n1` [Compound 249] is 100 to 500 nM; for `O=C(Nc1cnc(S(=O)(=O)NCCO)cc1N1CCC2(CC1)CC2)c1ccc([N+](=O)[O-])c(N2CC3CC3C2)n1` (centres unmarked) [Compound 250] it is 100 to 500 nM; for `CC(C)(CO)Nc1nc(C(=O)Nc2cnc(S(=O)(=O)NCCO)cc2N2CCC3(CC2)CC3)ccc1[N+](=O)[O-]` [Compound 251] it is 100 to 500 nM.

As to `O=C(Nc1cnc(S(=O)(=O)NCCO)cc1N1CCC2(CC1)CC2)c1ccc([N+](=O)[O-])c(N2CCOCC2)n1` [Compound 252], the IC50 is 100 to 500 nM. In the case of `C[C@@H](CO)NS(=O)(=O)c1cc(N2CCC3(CC2)CC3)c(NC(=O)c2ccc([N+](=O)[O-])c(N3CCC(F)(F)CC3)n2)cn1` [Compound 253], the IC50 was 100 to 500 nM. `C[C@H](CO)NS(=O)(=O)c1cc(N2CCC3(CC2)CC3)c(NC(=O)c2ccc([N+](=O)[O-])c(N3CCC(F)(F)CC3)n2)cn1` [Compound 254]: the IC50 lay in the range of 100 to 500 nM. As for `C[C@@H]1CN(c2nc(C(=O)Nc3cnc(S(=O)(=O)N[C@@H](C)CO)cc3N3CCC4(CC3)CC4)ccc2[N+](=O)[O-])CCO1` [Compound 255], the IC50 lay in the range of 100 to 500 nM. Then `C[C@H](CO)NS(=O)(=O)c1cc(N2CCC3(CC2)CC3)c(NC(=O)c2ccc([N+](=O)[O-])c(N3CCO[C@H](C)C3)n2)cn1` [Compound 256], with 100 to 500 nM; and `COc1ccc(NC(=O)c2ccc(NS(=O)(=O)CCO)cc2N2CCC3(CC2)CC3)nc1N1CCC(C)(F)C1` (centres unmarked) [Compound 264], with at most 100 nM; and `COc1ccc(NC(=O)c2ccc(NS(=O)(=O)CCO)cc2N2CCC3(CC2)CC3)nc1N1CCC(F)CC1` [Compound 265], with at most 100 nM. Then `COc1ccc(NC(=O)c2ccc(NS(=O)(=O)CCO)cc2N2CCC3(CC2)CC3)nc1N1CC2CC2C1` (centres unmarked) [Compound 266], with at most 100 nM; and `COc1ccc(NC(=O)c2ccc(NS(=O)(=O)CCO)cc2N2CCC3(CC2)CC3)nc1NC(C)(C)CO` [Compound 267], with at most 100 nM; and `COc1ccc(NC(=O)c2ccc(NS(=O)(=O)CCO)cc2N2CCC3(CC2)CC3)nc1N1CCOCC1` [Compound 268], with at most 100 nM. In the case of `COc1ccc(NC(=O)c2ccc(NS(=O)(=O)[C@@H](C)CO)cc2N2CCC3(CC2)CC3)nc1N1CCC(F)(F)CC1` [Compound 269], the IC50 is at most 100 nM. `COc1ccc(NC(=O)c2ccc(NS(=O)(=O)[C@H](C)CO)cc2N2CCC3(CC2)CC3)nc1N1CCC(F)(F)CC1` [Compound 270]: the IC50 is at most 100 nM. For the compound `COc1ccc(NC(=O)c2ccc(NS(=O)(=O)[C@@H](C)CO)cc2N2CCC3(CC2)CC3)nc1N1CCO[C@H](C)C1` [Compound 271], the half-inhibitory concentration (IC50) is at most 100 nM. The figure for `COc1ccc(NC(=O)c2ccc(NS(=O)(=O)[C@H](C)CO)cc2N2CCC3(CC2)CC3)nc1N1CCO[C@H](C)C1` [Compound 272] is at most 100 nM; for `COc1ccc(NC(=O)c2ccc(S(=O)(=O)NCCO)cc2N2CCC3(CC2)CC3)nc1N1CCO[C@H](C)C1` [Compound 274] it is at most 100 nM; for `COc1ccc(NC(=O)c2ccc(S(=O)(=O)NCCO)cc2N2CCC3(CC2)CC3)nc1N1CCO[C@@H](C)C1` [Compound 275] it is at most 100 nM. As for `COc1ccc(NC(=O)c2ccc(S(=O)(=O)NCCO)cc2N2CCC3(CC2)CC3)nc1N1CC(F)(F)C1` [Compound 276], the IC50 was at most 100 nM.

Take `COc1ccc(NC(=O)c2ccc(S(=O)(=O)NCCO)cc2N2CCC3(CC2)CC3)nc1OCCC(F)(F)F` [Compound 277]: the IC50 is at most 100 nM. The figure for `COc1ccc(NC(=O)c2ccc(S(=O)(=O)NCCO)cc2N2CCC3(CC2)CC3)nc1N1CCC2(CC2)C1` [Compound 278] is at most 100 nM; for `COc1ccc(NC(=O)c2ccc(S(=O)(=O)NCCO)cc2N2CCC3(CC2)CC3)nc1OC1CCC1` [Compound 279] it is at most 100 nM. On to `COc1ccc(NC(=O)c2ccc(S(=O)(=O)NCCO)cc2N2CCC3(CC2)CC3)nc1N1CCC(C)(F)C1` (centres unmarked) [Compound 280], for which the IC50 is at most 100 nM. The figure for `COc1ccc(NC(=O)c2ccc(S(=O)(=O)NCCO)cc2N2CCC3(CC2)CC3)nc1N1CCC(F)CC1` [Compound 281] is at most 100 nM.
